Here are results for 3 compounds from US20090281025A1, “INHIBITION OF TUMOR GROWTH AND METASTASIS BY ATF2-DERIVED PEPTIDES” (Mount Sinai School Of Medicine of New York University, priority 2004, published 2009).

Entries after “also recorded” stand apart in the source; their conditions may differ.

The test system of one test is SW1 cells. In words: Tumor growth of SW1 cells constitutively expressing ATF2 peptides, injected subcutaneously. The settings on record: constitutive expression, 18 days. The class given is in vivo, mouse. As for the experimental part: SW1 cells, which constitutively express the peptides indicated in FIG. 4A, were analyzed to detect expression of ATF2 peptides at the RNA level using RT-PCR. The indicated MW bands reflect the expected size product. SW1 cells (10^6) were injected subcutaneously into […] mice and tumor growth was monitored for 18 days, at which point tumors were removed and their size carefully assessed (FIG. 4B). Each group included 6 animals and each experiment was performed twice (P<0.01; T-test).
Inhibition of Tumor Growth. To examine the importance of the JNK association domain on ATF2, the possible role of a smaller peptide containing an intact JNK binding site (i.e., amino acids M^51T^52 of ATF2) was examined. To this end, three peptides of differing sizes (amino acids 51-80, 51-70, and 51-60) were compared to ATF2^51-100 peptide in their ability to inhibit tumor growth of SW1 cells in vivo. RT-PCR reactions confirmed the expression of these peptides' transcripts in the SW1 cells (FIG. 4A). […] However, expression of the 50aa peptide in these cells (constitutive expression based on selection of drug-resistant cells) decreased tumor size to 300 mm^3. Strikingly, constitutive expression of each of the 3 shorter peptides also elicited inhibition of melanoma growth that varied from 400-600 mm^3 (FIG. 4B). […] Further evaluation was performed on this 10 amino acid peptide.

The subject of the next test is TRE-Luc. In words: TRE-Luc luciferase reporter assay in SW1 cells. The settings on record: SW1 cells expressing peptide, luciferase after 18 hours. The class given is cell-based, mouse. Here is the method: (§1) SW1 cells constitutively expressing the indicated ATF2 peptides were transfected with either TRE-Luc (FIG. 5A) or with Jun2-Luc (FIG. 5B), and proteins were prepared for analysis of luciferase activity after 18 hours. Analysis was performed in duplicate, and the data reflect three independent experiments. SW1 cells expressing the ATF2 peptides were analyzed to establish the degree of spontaneous (basal) apoptosis as well as apoptosis 24 hours following treatment with the chemotherapeutic drug UCN-01 (FIG. 5C). The data represent triplicate analysis reproduced three times.
(§2) Alteration of ATF2 Transcriptional Activity. Assessed next was whether the short peptide caused any change in transcriptional activity mediated by ATF2 and its heterodimeric partners, using the TRE and Jun2 promoter sequences linked to the Luciferase marker gene. These reporter constructs (0.3 μg) were cotransfected with the respective expression vectors into melanoma cells (5×10^5) using Lipofectamine (Invitrogen). Luciferase activity was measured using the Luciferase assay system (Promega).
(Reporter assays use an easily measured gene product as a stand-in for the process of interest.)

The subject of another test is Jun2-Luc. In words: Jun2-Luc luciferase reporter assay in SW1 cells. In kind it is cell-based, mouse. The settings on record: SW1 cells expressing peptide, luciferase after 18 hours. As for the experimental part: as §1, §2
The next test relates to SW1 melanoma cells. In words: Apoptosis of SW1 cells by FACS (hypodiploid nuclei). The class given is cell-based, mouse. The settings on record: SW1 cells expressing peptide, treated with UCN-01; given as control-to-peptide increase. Here is the method:
as §1
(§3) Effect on Apoptosis. Assessed next was the degree of apoptosis in SW1 cells under normal growth (spontaneous) as well as following treatment with chemotherapeutic drugs. Cells were analyzed to detect spontaneous (basal) or induced apoptosis [following treatment with the kinase inhibitor UCN-01 (kindly provided by NCI repository) for 36 hours]. Apoptosis was measured by using FACS (Ivanov et al., Mol. Cell, 2001, 7:517-28) to quantify the percentage of hypodiploid nuclei undergoing DNA fragmentation. Nucleation as a marker of apoptosis was monitored via DAPI staining of cells at indicated time points after their treatment. Caspase activity was monitored by immunoblots using antibodies to caspase 9 (Santa Cruz). PARP cleavage was monitored by corresponding antibodies (PharMingen).

Test [1] deals with Human melanoma cells LU1205. In words: Caspase and PARP cleavage immunoblot in LU1205 cells. In kind it is cell-based. The settings on record: peptides by transfection, UCN-01 (5 μm) 24 hours. As for the experimental part: (§4) Human melanoma cells LU1205 were transfected with the nucleic acid molecules that encode either ATF2^51-100 peptide or ATF2^51-60 peptide. Twenty-four hours after transfection, cells were treated with of UCN-01 (5 μm) for 24 hours. Immunoblotting analysis was performed using caspase 9 and PARP antibodies, and β-actin was used as a loading control (FIG. 6A). The same experiment was performed in SW-1 cells (FIG. 6B). Stars point to the position of the uncleaved form whereas arrows point to the cleaved products.
as §3
(In general: Immunoblotting shows a protein as a band on a membrane.)

Another test concerns SW-1 cells. In words: Caspase and PARP cleavage immunoblot in SW-1 cells. The class given is cell-based, mouse. The settings on record: peptides by transfection, UCN-01 (5 μm) 24 hours. Here is the method: as §4, §3
Another test concerns the target T1, JNK-c-Jun association (Homo sapiens, UniProt P45984).
T1 construct: made in house; host or cells: JNK2 from transfected 293T cells; c-Jun from the TNT-coupled reticulocyte lysate system (Promega)
In words: In vitro association of bead-bound JNK with c-Jun. The class given is binding. The settings on record: 35S-labeled in vitro translated c-Jun, synthetic peptide. As for the experimental part:
(§5) HA-JNK was transfected into 293T cells and 24 h later JNK was immunoprecipitated and bound to protein G beads. Bead-bound JNK was incubated with in vitro-translated c-Jun or ATF2 in the absence or presence of the wt or mutant form of ATF2^51-60. Following incubation bead-bound JNK was washed (see Example 4) and the amount of bound Jun or ATF2 was assessed via SDS-PAGE analysis subjected to autoradiography (Panel A) and quantification with the aid of a phosphor imager (Panels B and C).
(§6) Effect on JNK/Jun Association. The short peptide's ability to elicit major changes in TRE-dependent transcription and spontaneous apoptosis led to an assessment of possible changes in the JNK-Jun association. Flag JNK2 expressed in 293T cells extracted, immunopurified with anti-Flag antibody bound to Protein G agarose beads were first incubated with 3 mg/ml of BSA in phosphate-buffered saline for 2 h, followed by incubation at 4° C. for 2 h with ^35S-labeled in vitro translated c-Jun or ATF2 (TNT-coupled reticulocyte lysate system, Promega) in the presence of WT or mutant peptide. Bead-bound material was subjected to three washes with 20 mM Tris [pH 7.5], 150 mM NaCl, 1 mM EDTA, 1 mM EGTA, 0.5% NP-40, 1 mM NaVO4, and 1 mM DTT supplemented with protease inhibitors. […] Binding was detected by autoradiography and quantified with the aid of a phosphorimager. […]

The target in a further test is T2, JNK-ATF2 association (Homo sapiens, UniProt P45984).
T2 construct: made in house; host or cells: JNK2 from transfected 293T cells; ATF2 from the TNT-coupled reticulocyte lysate system (Promega)
In words: In vitro association of bead-bound JNK with ATF2. In kind it is binding. The settings on record: 35S-labeled in vitro translated ATF2, synthetic peptide. As for the experimental part:
as §5, §6

Consider “ATF2^51-60: ATF2 peptide from amino acid residue 51 to 60 (about a 10 amino acid peptide); expressed in cells or synthesized (MTLKFGPARN; UniProt P15336 51-60, looked up, fragment)”, for which the “inhibition of SW1 melanoma growth in vivo” value in the test on SW1 cells is recorded as “inhibits melanoma growth in vivo”; with SW1 cells (listed as 51-60) it was “efficient inhibition close to that observed with the 50 amino acid peptide”. In addition, the TRE-Luc activity result in the test on TRE-Luc is given as “efficient in increasing TRE-Luc activities; also recorded: increases TRE-Luc activity”. In addition, the Jun2-Luc transcriptional activity entry was “does not significantly affect Jun2-Luc activity” with Jun2-Luc; “no longer inhibited and slightly elevated” in the test with Jun2-Luc (listed as 51-60 amino acid peptide). Also, the UCN-01-induced apoptosis in the test with SW1 melanoma cells was 20-40%. In addition, the “activation of caspase 9 (cleavage fragments)” value (shortened to “activation”) (in test [1]; in the test with SW-1 cells) was “activation of caspase 9 even prior to treatment with UCN-01” in each case. For the same compound, the “association between JNK and c-Jun” value with JNK-c-Jun association was “increases the in vitro association between JNK and c-Jun in a dose-dependent manner; also recorded: increases Jun association with JNK”. The JNK-ATF2 association result in the test with JNK-ATF2 association is “not observed”.
For “ATF2^51-70: ATF2 peptide from amino acid residue 51 to 70 (about a 20 amino acid peptide) (MTLKFGPARNDSVIVADQTP; UniProt P15336 51-70, looked up, fragment)”, the “inhibition of SW1 melanoma growth in vivo” value in the test on SW1 cells is “efficient inhibition close to that observed with the 50 amino acid peptide”.
For `CN[C@@H]1C[C@H]2O[C@@](C)([C@@H]1OC)n1c3ccccc3c3c4c(c5c6ccccc6n2c5c31)C(=O)N[C@@H]4O` [UCN-01, reference compound], in test [1], the PARP cleavage entry is “PARP cleavage was observed” and the “activation” value is on record as “caused activation of caspase 9”. Besides, in the test with SW-1 cells, the PARP cleavage result is on record as “PARP cleavage was observed” and the “activation” value is given as “caused activation of caspase 9”.
